Tested on: neovascularization
Experiment: Placement of the drug delivery systems into the vitreous of an eye: duration of therapeutic benefit
Assay type: in vivo
Details: drug delivery system placed into the vitreous of an eye
Source text: Drug delivery systems which comprise about 86.1 milligrams of Cand5 can be produced similar to those systems described in Examples 1. Such drug delivery systems release Cand5 at a rate from about 49.7 micrograms per day to about 4970 micrograms per day. The release rates can be measured using in vitro and/or in vivo assays as described above. […] Improvements in patient function, such as vision and intraocular pressure, can be observed at longer time periods.
Drug delivery systems which comprise about 86.1 milligrams of siRNA Z can be produced similar to those systems described in Examples 1, above. Such drug delivery systems release siRNA Z at a rate from about 49.7 micrograms per day to about 4970 micrograms per day. The release rates can be measured using in vitro and/or in vivo assays as described above. […] Improvements in patient function, such as vision and intraocular pressure, can be observed at longer time periods.

## Cand5: siRNA from Acuity Pharmaceuticals/Avecia that silences genes producing VEGF; sense SEQ ID NO: 3, antisense SEQ ID NO: 4 (sense ACCUCACCAAGGCCAGCAC; antisense GUGCUGGCCUUGGUGAGGU; listed as RNA, chemistry not fully specified; listed as Homo Sapiens)
  duration of therapeutic benefits, such as the treatment of neovascularization, after a single administration: at least about thirty days
